Where “and” joins values, the source holds several entries; their conditions need not be identical. Equal values may be shown once.
How the values were obtained:
Type in all cases: cell-based
CRBPI mRNA = assay: Various anti-aging related mRNA expression experiment (qPCR), CRBPI; conditions: HFF-1 cells, 5 μg/mL HPR, 9 μg/mL retinyl propionate, alone or in combination, individual replicates
Protocol: (§1) RNA extraction: a cell sample was taken, a supernatant was removed, 1 mL of a TRIZON reagent was added into each well of a 6-well plate, the cells were stood, cracked, and transferred to a 1.5-mL EP tube, 0.2 mL of chloroform was added, and the mixture was shaken, uniformly mixed, stood on ice, and centrifuged at 12,000 rpm/min at 4° C. for 15 min; about 400 μL of an obtained supernatant was taken, isopropanol with the same volume was added, the mixture was lightly shaken, stood on ice at 4° C., and centrifuged at 12,000 rpm/min for 10 min; an obtained supernatant was removed, 1 mL of 75% ethanol was added into an obtained precipitate, an EP tube was shaken to float the precipitate to achieve a washing effect, the obtained product was centrifuged at 7,500 rpm/min at 4° C. for 10 min; an obtained supernatant was removed, a part of ethanol was left, the product was centrifuged at 7,500 rpm/min at 4° C. for 5 min, and residual ethanol was removed from the inner wall of the tube; and an obtained supernatant was removed, the liquid was aspirated, and a certain amount of RNA-free water was added for resuspension and dissolution. 2 μL of the product was analyzed on a SpectraMax iD3 multifunctional microplate reader for detecting the RNA concentration and A260/A280 value.
(§2) cDNA synthesis: the mRNA was subjected to reverse transcription into cDNA by using a HiFiScript cDNA synthesis kit.
(§3) Fluorescence quantification: the expression of the Elastin mRNA in the cell sample was detected by mixing an UltraSYBR Mixture premixed solution and the cDNA, and loading the mixture into a machine.
(§4) 3.1 Experimental content: an effect of 5 μg/mL of HPR and 9 μg/mL of retinyl propionate alone or in combination on expressions of collagen-related mRNAs in HFF-1 cells.
(§5) 3.2 Experimental method: the HFF-1 cells were seeded in a 96-well plate (3,000 cells/mL and […]) and administrated in a 5 μg/mL HPR group, a 9 μg/mL retinyl propionate group, and a 5 μg/mL HPR+9 μg/mL retinyl propionate group. A blank control was set at the same time. Total RNA of the cells was extracted at 24 h, 48 h, and 72 h and the expressions of the collagen-related mRNAs were detected by qPCR. (The specific operation steps referred to section 1.2)
(§6) 3.3 Experimental results: data was input by the Excel, subjected to statistical processing by a Prism (Version 7) software package, and expressed as meantstandard error. Each data was subjected to a one-way analysis of variance and p<0.05 was considered to be statistically different.

Col-IV mRNA = assay: Various anti-aging related mRNA expression experiment (qPCR), Col-IV; conditions: HFF-1 cells, 5 μg/mL HPR, 9 μg/mL retinyl propionate, alone or in combination, individual replicates
Protocol: as §1, §2, §3, §4, §5, §6

Elastin mRNA = assay: Various anti-aging related mRNA expression experiment (qPCR), Elastin; conditions: HFF-1 cells, 5 μg/mL HPR, 9 μg/mL retinyl propionate, alone or in combination, individual replicates
Protocol: as §1, §2, §3, §4, §5, §6

RARB mRNA = assay: Various anti-aging related mRNA expression experiment (qPCR), RARB; conditions: HFF-1 cells, 5 μg/mL HPR, 9 μg/mL retinyl propionate, alone or in combination, individual replicates
Protocol: as §1, §2, §3, §4, §5, §6

HFF-1 cells = assay: Cytotoxicity experiment (CCK-8 cell viability); conditions: 24 h, 5 μg/mL HPR, 9 μg/mL retinyl propionate, alone or in combination, individual replicates
Protocol: 2.1 Experimental content: an effect of 5 μg/mL of HPR and 9 μg/mL of retinyl propionate alone or in combination on the viability of HFF-1 cells.
2.2 Experimental method: the HFF-1 cells were seeded in a 96-well plate (3,000 cells/mL and 100 μL per well) and administrated in a 5 μg/mL HPR group, a 9 μg/mL retinyl propionate group, and a 5 μg/mL HPR+9 μg/mL retinyl propionate group. A blank control was set at the same time. The cell viability after 24 h of the administration treatment was detected using a CCK-8 kit.
2.3 Experimental results: data was input by the Excel, subjected to statistical processing by a Prism (Version 7) software package, and expressed as meantstandard error. Each data was subjected to a one-way analysis of variance and p<0.05 was considered to be statistically different.

Row | Compound | CRBPI mRNA expression (blank control 1) (CRBPI mRNA; after 24 h) | CRBPI mRNA expression (blank control 1) (CRBPI mRNA; after 48 h) | CRBPI mRNA expression (blank control 1) (CRBPI mRNA; after 72 h) | Col IV mRNA expression (blank control 1) (Col-IV mRNA; after 24 h) | Col IV mRNA expression (blank control 1) (Col-IV mRNA; after 48 h) | Col IV mRNA expression (blank control 1) (Col-IV mRNA; after 72 h) | Elastin mRNA expression (blank control 1) (Elastin mRNA; after 24 h) | Elastin mRNA expression (blank control 1) (Elastin mRNA; after 48 h) | Elastin mRNA expression (blank control 1) (Elastin mRNA; after 72 h) | RARB mRNA expression (blank control 1) (RARB mRNA; after 24 h) | RARB mRNA expression (blank control 1) (RARB mRNA; after 48 h) | RARB mRNA expression (blank control 1) (RARB mRNA; after 72 h) | viability of HFF-1 cells (blank control 100) (HFF-1 cells)
1 | CC1=C(/C=C/C(C)=C/C=C/C(C)=C/C(=O)OCC(=O)C(C)(C)C)C(C)(C)CCC1 [HPR, hydroxypinacolone retinoate] | 3.223 and 1.094 and 1.597 | 1.094 and 1.488 and 1.58 | 4.017 and 1.79 and 3.295 | 1.357 and 1.014 and 1.223 | 1.474 and 1.094 and 1.945 | 1.165 and 1.265 and 0.9395 | 1.778 and 14.52 and 1.029 | 2.928 and 2.809 and 3.317 | 1.963 and 3.52 and 4.112 | 1.079 and 3.732 and 5.063 | 1.659 and 1.189 and 3.605 | 2.395 and 1.042 and 4.925 | 104.9 and 101.4 and 100.3
2 | CCC(=O)OC/C=C(C)/C=C/C=C(C)/C=C/C1=C(C)CCCC1(C)C [retinyl propionate] | 1.58 and 1.866 and 1.042 | 1.275 and 1.647 (2×) | 3.272 and 1.087 and 1.072 | 1 and 1.357 and 1.079 | 1.385 and 1.485 and 1.117 | 1.625 and 1.189 and 0.9794 | 1.778 and 16.11 and 1.157 | 1.866 and 2.77 and 3.01 | 5.736 and 6.727 and 1.275 | 1.301 and 1.214 and 2.828 | 1.301 and 1.602 and 1.079 | 1.803 and 1.165 and 1.301 | 100.2 and 100.8 and 95.66
